Measured values published in US10988444B2, “Antimicrobial compounds” (NEWSOUTH INNOVATIONS PTY LIMITED, priority 2016, dated 2021).
In brackets after ≈: the same amount, converted by molar mass.

Tests used:
S. aureus [1] = experiment: Minimal inhibitory concentration (MIC) determination, Example 1; type: cell-based; conditions: MHB, 37° C., 24 h; for MIC: Staphylococcus aureus, read-out: Minimum inhibitory concentration (MIC) S. aureus
Procedure: (§1) The antibacterial activity of the compounds was determined by the determination of minimal inhibitory concentration (MIC) by following the previously published protocol (see Nizalapur, S.; Ho, K. K.; Kimyon, Ö.; Yee, E.; Berry, T.; Manefield, M.; Cranfield, C. G.; Willcox, M.; Black, D. S.; Kumar, N. Org. Biomol. Chem. 2016, 14, 3623). The compounds to be tested were dissolved and diluted in autoclaved Millipore water. A single colony of bacteria was cultured overnight in TSB at 37° C. The resulting bacteria were collected by centrifugation and re-suspended in the same volume of MHB twice. Optical density (OD) of the resulting culture was adjusted to 0.1 at 600 nm (10^8 CFU/mL) in MHB, and the adjusted culture was further diluted to […] in MHB. Then, 100 μL of the bacterial solution was added to wells of a 96-well plate containing 100 μL of serially diluted compound. Two controls were also prepared: one containing 100 μL of MHB media and 100 μL sterile water, and the other containing 100 μL of bacterial solution and 100 μL sterile water. […] The MIC value was determined as the lowest concentration of compound that inhibited the complete growth of the bacteria (i.e. OD similar to that of the control having no bacteria). Each experiment was performed in triplicate and was repeated in three independent experiments.
(§2) The results of the MIC assay are given below in Table 1.

E. coli [2] = experiment: as above; type: cell-based; conditions: 24 h, MHB, 37° C.; for MIC: Escherichia coli, read-out: Minimum inhibitory concentration (MIC) E. coli
Procedure: as §1, §2

S. marcescens [3] = experiment: Biofilm disruption assay, established biofilms, crystal violet staining; type: cell-based, Serratia marcescens; conditions: 250 μM, 24 h treatment
Procedure: (§3) Bacterial cultures were grown in TSB media for overnight at 37° C. with shaking at 150 r.p.m. Cultures were diluted (1:20) in YPD medium and 200 μl aliquots were dispensed to flat bottom 96-well plate wells (Sarstedt Australia). Cultures were supplemented with varying concentrations of synthetic compounds dissolved in water. For pre-established biofilm assay, cultures were grown in 96-well plate wells overnight prior to supplementation with synthetic compounds. Control cultures were supplemented with an equal amount of DMSO. Plates were sealed with self-adhesive microplate sealers (TopSeal-A, PerkinElmer) to allow air diffusion and to prevent condensation. Cultures were incubated overnight at 37° C. with shaking at 150 r.p.m. Biofilms adhered on polystyrene substratum were quantified by crystal violet staining as described previously (see Wiegand, I.; Hilpert, K.; Hancock, R. E. W. Nat. Protocols 2008, 3 (2), 163-175). All cultures were prepared in triplicates. Error bars represent the standard error of three independent experiments (n=3).
(§4) The biofilm disruption activities of the compounds were investigated using crystal violet staining according to a previously published protocol (G. A. O'Toole, J Vis Exp, 2011, (47), pii: 2437, DOI: 10.3791/2437, 2437). The ability of compounds (34-38, 51-56, 61, 62, 65 and 66) to disrupt the established biofilms of the Gram-positive bacteria S. aureus and the Gram-negative bacteria Pseudomonas aeruginosa, Serratia marcescens and E. coli, was determined at a concentration of 250 μM. In this assay, bacterial cultures were grown on a polystyrene substratum overnight prior to treatment with the compounds. In addition, the ability of these compounds to inhibit the formation of biofilms of P. aeruginosa and S. marcescens was also investigated at 250 μM, whereby the bacterial cultures were grown in the presence of test compounds.

E. coli (K12) = experiment: Minimal inhibitory concentration (MIC) assay, broth micro dilution, Example 3; type: cell-based; conditions: Escherichia coli; K12, MHB, 37° C., 18-24 hours; read-out: Minimum inhibitory concentration (MIC) E. coli
Procedure: (§5) Compounds 95, 96, 106, 107, 109, 117 were assessed by determining their minimum inhibitory concentration (MIC) according through broth micro dilution assay using the procedure described by M. A. Wikler, Methods for dilution antimicrobial susceptibility tests for bacteria that grow aerobically: approved standard, Clinical and Laboratory Standards Institute, 2006. Briefly, bacteria were grown to mid-log phase in Muller Hinton broth (MHB) with shaking at 120 rpm and incubated at 37° C. for 18-24 hours. Following incubation, bacteria were washed three times in PBS pH 7.4 at 3500 g for 10 minutes. After washing, bacteria were diluted with fresh MHB. The turbidity of the bacterial suspensions were adjusted so that OD660 nm was 0.1, which gave 1×10^8 cfu/ml, and then further diluted to achieve 1-2×10^5 cfu/ml as a final bacterial concentration. Each compound was diluted (250-3.9 μM) through two-fold dilution. Wells in microtitre plates were loaded with 100 μl of inoculum containing 1-2×10^5 cfu/ml bacteria. Wells without any compound and containing only bacteria were used as a negative control (i.e. no inhibition of growth). Wells without bacteria but containing compound acted as another control. The microtitre plate was wrapped with paraffin to prevent evaporation and incubated with shaking at 120 rpm and 37° C. for 18-24 hours. After incubation, spectrophotometric reading was taken. The well without any bacterial growth and showing zero spectrophotometric reading regarded as mic of the compounds.

S. aureus (SA38) = experiment: as above; type: cell-based; conditions: Staphylococcus aureus; SA38, MHB, 37° C., 18-24 hours; read-out: Minimum inhibitory concentration (MIC) S. aureus
Procedure: as §5

[4] = test system: Pseudomonas aeruginosa (PAO1); experiment: Biofilm disruption assay, established biofilms, crystal violet staining; type: cell-based; conditions: 250 μM, 24 h treatment
Procedure: as §3, §4

S. marcescens [5] = experiment: Biofilm inhibition assay (inhibition of biofilm formation), crystal violet staining; type: cell-based; conditions: Serratia marcescens, 24 h
Procedure: as §3, with “no-established” for “pre-established”, “along” for “prior to supplementation”, “water.” for “DMSO.”
as §4

E. coli [6] = experiment: Biofilm disruption assay, established biofilms, crystal violet staining; type: cell-based; conditions: 250 μM, 24 h treatment
Procedure: as §3, §4

S. aureus [7] = experiment: as above; type: cell-based; conditions: 250 μM, 24 h treatment
Procedure: as §3, §4

Row | Compound | MIC (S. aureus [1]) [µg/mL] | MIC (E. coli [2]) [µg/mL] | MIC (E. coli (K12)) [µM] | MIC (S. aureus (SA38)) [µM] | further results
1 | Cl.N=C(N)NCCCC[C@H](NC(=O)C(=O)c1ccccc1NC(=O)c1ccc2ccccc2c1)C(=O)O [Compound 51, N^2-(2-(2-(2-naphthamido)phenyl)-2-oxoacetyl)-N^6-carbamimidoyllysine hydrochloride] | 53 | 66 |  |  | disruption of established biofilms of S. marcescens (S. marcescens [3]): 48%
2 | COc1ccc(NC(=O)c2ccc3ccccc3c2)c(C(=O)N[C@@H](Cc2c[nH]c3ccccc23)C(=O)NCCNC(=N)N)c1 [Compound 109, (S)—N-(2-((1-((2-Guanidinoethyl)amino)-3-(1H-indol-3-yl)-1-oxopropan-2-yl)carbamoyl)-4-methoxyphenyl)-2-naphthamide] |  |  | 62.5 (≈ 37 µg/mL) | 7.8 (≈ 4.62 µg/mL) | 
3 | CC(=O)C(CCCCNC(=N)N)NC(=O)C(=O)c1ccccc1NC(=O)c1ccc2ccccc2c1.Cl (stereo not drawn) [Compound 55, N-(2-(2-((7-guanidino-2-oxoheptan-3-yl)amino)-2-oxoacetyl)phenyl)-2-naphthamide hydrochloride] | > 140 | 17 |  |  | 
4 | NCCNC(=O)[C@H](Cc1c[nH]c2ccccc12)NC(=O)c1cc(Br)ccc1NC(=O)c1ccc2ccccc2c1 [Compound 95, (S)—N-(2-((1-((2-Aminoethyl)amino)-3-(1H-indol-3-yl)-1-oxopropan-2-yl)carbamoyl)-4-bromophenyl)-2-naphthamide] |  |  | > 125 | 3.9 (≈ 2.33 µg/mL) | 
5 | Cc1ccc(NC(=O)c2ccc3ccccc3c2)c(C(=O)C(=O)N[C@@H](CCCCNC(=N)N)C(=O)O)c1.Cl [Compound 54, N^2-(2-(2-(2-naphthamido)-5-methylphenyl)-2-oxoacetyl)-N^6-carbamimidoyllysine hydrochloride] | 54 | 68 |  |  | disruption of established biofilms of P. aeruginosa [4]: 46%; Minimum inhibitory concentration (MIC) E. coli (E. coli [2]; hydrochloride): 69 µg/mL
6 | CC(=O)C(CCCCNC(=N)N)NC(=O)C(=O)c1cc(Br)ccc1NC(=O)c1ccc2ccccc2c1.Cl (stereo not drawn) [Compound 56, N-(4-bromo-2-(2-((7-guanidino-2-oxoheptan-3-yl)amino)-2-oxoacetyl)phenyl)-2-naphthamide hydrochloride] | > 140 | 19 |  |  | inhibition at 250 µM (S. marcescens [5]): 61%
7 | Cl.N=C(N)NCCCNC(=O)C(=O)c1cc(F)ccc1NC(=O)c1ccc2ccccc2c1 [Compound 37, N-(4-Fluoro-2-(2-((3-guanidinopropyl)amino)-2-oxoacetyl)phenyl)-2-naphthamide hydrochloride] | 30 | 59 |  |  | inhibition at 250 µM (S. marcescens [5]): 74%; disruption of established biofilms of E. coli (E. coli [6]): 53%
8 | COC(=O)C(CCCN)NC(=O)C(CCCCN)NC(=O)C(=O)c1ccccc1NC(=O)c1ccc2ccccc2c1.Cl.Cl (stereo not drawn) [Compound 61, Methyl2-(2-(2-(2-(2-naphthamido)phenyl)-2-oxoacetamido)-6-aminohexanamido)-5-aminopentanoate dihydrochloride] | 130 | 39 |  |  | disruption of established biofilms of S. aureus (S. aureus [7]): 53%; disruption of established biofilms of P. aeruginosa [4]: 55%
9 | NCCNC(=O)[C@H](Cc1c[nH]c2ccccc12)NC(=O)c1cc(F)ccc1NC(=O)c1ccc2ccccc2c1 [Compound 96, (S)—N-(2-((1-((2-Aminoethyl)amino)-3-(1H-indol-3-yl)-1-oxopropan-2-yl)carbamoyl)-4-fluorophenyl)-2-naphthamide] |  |  | 15.6 (≈ 8.39 µg/mL) | 7.8 (≈ 4.19 µg/mL) | 
10 | Gentamicin [reference compound] |  |  |  |  | Minimum inhibitory concentration (MIC) S. aureus (S. aureus [1]): <0.6 µg/mL; Minimum inhibitory concentration (MIC) E. coli (E. coli [2]): 2.5 µg/mL
11 | Cl.N=C(N)NCCCC[C@H](NC(=O)C(=O)c1cc(Br)ccc1NC(=O)c1ccc2ccccc2c1)C(=O)O [Compound 52, N^2-(2-(2-(2-naphthamido)-5-bromophenyl)-2-oxoacetyl)-N^6-carbamimidoyllysine hydrochloride] | 77 | 77 |  |  | inhibition at 250 µM (S. marcescens [5]): 72%; disruption of established biofilms of S. aureus (S. aureus [7]): 42%
12 | Cl.N=C(N)NCCCNC(=O)C(=O)c1ccccc1NC(=O)c1ccc2ccccc2c1 [Compound 34, N-(2-(2-((3-Guanidinopropyl)amino)-2-oxoacetyl)phenyl)-2-naphthamide hydrochloride] | 23 | > 110 |  |  | 
13 | N=C(N)NCCNC(=O)[C@H](Cc1c[nH]c2ccccc12)NC(=O)c1cc(Br)ccc1NC(=O)c1ccc2ccccc2c1 [Compound 106, (S)—N-(4-Bromo-2-((1-((2-guanidinoethyl)amino)-3-(1H-indol-3-yl)-1-oxopropan-2-yl)carbamoyl)phenyl)-2-naphthamide] |  |  | 15.6 (≈ 9.99 µg/mL) | 3.9 (≈ 2.5 µg/mL) | 
14 | Cc1ccc(NC(=O)c2ccc3ccccc3c2)c(C(=O)C(=O)NCCCNC(=N)N)c1.Cl [Compound 38, N-(2-(2-((3-Guanidinopropyl)amino)-2-oxoacetyl)-4-methylphenyl)-2-naphthamide hydrochloride] | 93 | > 110 |  |  | 
15 | CN(C)CCNC(=O)[C@H](Cc1c[nH]c2ccccc12)NC(=O)c1cc(Br)ccc1NC(=O)c1ccc2ccccc2c1 [Compound 117, (S)-2-(2-(2-(2-Naphthamido)-5-bromobenzamido)-3-(1H-indol-3-yl)propanamido)-N,N-dimethylethan-1-aminium chloride] |  |  | 125 | 7.8 | 
16 | N=C(N)NCCNC(=O)[C@H](Cc1c[nH]c2ccccc12)NC(=O)c1cc(F)ccc1NC(=O)c1ccc2ccccc2c1 [Compound 107, (S)—N-(4-Fluoro-2-((1-((2-guanidinoethyl)amino)-3-(1H-indol-3-yl)-1-oxopropan-2-yl)carbamoyl)phenyl)-2-naphthamide] |  |  | 125 (≈ 72.5 µg/mL) | 1.8 (≈ 1.04 µg/mL) | 
